Measurements: US11419878B2, “Medicine obtained by combining FXR agonist and ARB” (Intercept Pharmaceuticals, Inc., priority 2016, dated 2022)

What was measured:
[1] = tested on: Otsuka Long-Evans Tokushima Fatty (OLETF) rats administered porcine serum (PS); experiment: Rat NASH model (OLETF rats given porcine serum), Sirius Red histology of hepatic fibrosis; format: in vivo; conditions: obeticholic acid 30 mg/kg/day and/or losartan 30 mg/kg/day oral; for fibrosis index (FI) as fraction of the level in the positive control group: PS 8 weeks, p<0.01; for progression of hepatic fibrosis (micrographs of Sirius Red-stained liver sections): PS i.p. twice weekly 8 weeks
Description: As a rat NASH model, Otsuka Long-Evans Tokushima. Fatty (OLETF) rats, which are known as a model for naturally-occurring type II diabetes with obesity, were administered porcine serum (PS) in order to experimentally induce liver fibrosis, and the therapeutic effects of distilled water (vehicle administration group), obeticholic acid (an FXR agonist) and losartan (an ARB) (administration groups, combined administration group) were investigated according to the following method.
Male OLETF rats (n=40) and Long-Evans Tokushima Otsuka (LETO) rats=10; non-diabetic negative control group)
Obeticholic acid (obtained from Intercept Pharmaceuticals, Inc. via Sumitomo Dainippon Pharma Co., Ltd.) was used as an FXR agonist, and commercial losartan (potassium salt of losartan; referred to in this working example simply as “losartan”) was used as an ARB.
Obeticholic acid (30 mg/kg/day) and/or losartan (30 mg/kg/day) was/were given by forced oral administration; the administration period was 8 weeks in all cases.
12-week-old OLETF rats were randomly divided into 4 groups (G2, G3, G4, G5) (n=10 for each group) and given intraperitoneal administrations of 1.0 ml/kg of porcine serum (PS) twice weekly for 8 weeks. 12-week-old LETO rats (n=10) were taken as group G1 and administered PS in the same manner. On the same day on which PS administration was begun, the group G3 and G4 rats were respectively administered obeticholic acid (30 mg/kg/day) and losartan (30 mg/kg/day) daily for 8 weeks by forced continuous oral administration. The group G5 rats were given daily combined administration of obeticholic acid (30 mg/kg/day) and losartan (30 mg/kg/day) for 8 weeks in the same manner. The rats in the G1 group (LETO) and G2 group (OLETF) were administered distilled water as a vehicle instead of the drugs and taken as the negative and positive control group respectively (with the same administration method as in the drug groups).
In order to evaluate the progression of hepatic fibrosis, formalin-fixed paraffin-embedded liver sections (5 μm in width) were taken from rats that had completed the above testing and stained with Sirius Red. Micrographs of the stained sections were taken and collected (in all of the rats, microscopic images were collected with a total of 10 fields per sample), and the micrographs of the various groups were compared. In order to quantitate the progression of fibrosis in the various groups, a semiquantitative analysis of the histological characteristics of the images of the stained specimens collected was conducted using ImageJ software from the NIH (National Institutes of Health).

[2] = tested on: α-smooth muscle actin (α-SMA); experiment: Rat NASH model, immunohistological staining of liver sections with α-SMA antibody (HSC activation); format: in vivo; conditions: OLETF rats, PS 8 weeks, obeticholic acid 30 mg/kg/day and/or losartan 30 mg/kg/day oral; for α-SMA index (α-SI) compared to the positive control group: p<0.01
Description: (§1) Using the liver sections from the rats in the various groups obtained in working example 1, an immunohistochemical study by immunohistological staining with α-smooth muscle actin (α-SMA) antibody and a quantitative analysis of transforming growth factor-β1 TGF-β1) and collagen (α1(I) procollagen) mRNA expression were conducted. α-SMA is known to be an indicator (marker) of activation of hepatic stellate cells (HSCs) (also known as hepatic star cells). Moreover, activation of hepatic stellate cells (HSC), overproduction of TGF-β1 (a fibrosis-promoting cytokine) accompanying said activation, and overproduction of extracellular matrix components such as collagen are thought to play a central role in the mechanism of progressive hepatic fibrosis in NASH. For this reason, mRNA expression of TGF-β1 and collagen (α1(I) procollagen) can be a fibrosis indicator (marker).
Using the same method as described under [Histological analysis] in working example 1 above, except that immunohistological staining with α-SMA antibody was used instead of Sirius Red staining, a comparison of the micrographs among the various groups and a semiquantitative analysis of the immunohistochemical characteristics of the collected stained section images were carried out, and the blocking effect of obeticholic acid and losartan (administration groups, combined administration group) on HSC activation in the progression of hepatic fibrosis was evaluated.

TGF-β1 = experiment: Rat NASH model, RT-PCR of hepatic TGF-β1 mRNA expression; format: in vivo; conditions: OLETF rats, PS 8 weeks, obeticholic acid 30 mg/kg/day and/or losartan 30 mg/kg/day oral
Description: as §1
(§2) A comparative study was conducted by analyzing TGF-β1 and collagen (α1(I) procollagen) mRNA expression in the livers of the rates of the various groups of working example 1 by means of the quantitative real-time polymerase chain reaction (RT-PCR). Quantitation of the mRNA expression levels by RT-PCR was conducted on a StepOne Plus™ system (manufactured by Applied Biosystems®) using the fluorescent dye SYBR® Green

α1(I) procollagen [3] = experiment: Rat NASH model, RT-PCR of hepatic α1(I) procollagen mRNA expression; format: in vivo; conditions: OLETF rats, PS 8 weeks, obeticholic acid 30 mg/kg/day and/or losartan 30 mg/kg/day oral
Description: as §1, §2

α1(I) procollagen [4] = experiment: HHSC fibrosis marker gene expression, RT-PCR, α1(I) procollagen; format: cell-based, human; conditions: AT-II 10^-6M + LPS 10^-5M; ARB 10^-6M, obeticholic acid 5×10^-6M; 24 hours; monotherapy vs G2AL, combination vs monotherapy groups
Description: The various combined effects of obeticholic acid and three types of ARBs (losartan, valsartan, and candesartan) were confirmed in an in vitro cell system experiment. Specifically, using human hepatic stellate cells (HHSC), which are implicated in the main mechanism of progression of hepatic fibrosis in NASH, the effects of administration of obeticholic acid in combination with the three ARBs of inhibiting HHSC proliferation capacity and the expression of fibrosis markers were evaluated according to the following method. Human hepatic stellate cells (HHSC) (also referred to as human hepatic star cells) Obeticholic acid (obtained from Intercept Pharmaceuticals, Inc. via Sumitomo Dainippon Pharma Co., Ltd.) was used as an FXR agonist, and commercial losartan (potassium salt of losartan; referred to in this working example simply as “losartan”) and valsartan and candesartan ([…] of candesartan; referred to in this working example simply as “candesartan”) were used as ARBs. Angiotensin II (AT-II) and/or lipopolysaccharide (LPS) were used (both AT1-mediated AT-II signalling and TLR4-mediated LPS signaling are known to play major roles in HSC activation and the progression of hepatic fibrosis). With respect to the effect of inhibiting fibrosis marker gene expression, collagen production capacity and TGF-β production capacity were evaluated by the RT-PCR method. 1) HHSCs were inoculated onto a 6-well plate in the amount of 300,000 cells/2 ml and allowed to proliferate in 1% FBS DMEM medium for 24 hours. 2) After 24 hours, the cells were divided into the following 7 groups and transferred to culture medium after adding the following drugs and/or reagents. Losartan was used as an ARB. Negative control group (G1): No drugs added (control) […] AT-II (10^-6M) Positive control group L […]): LPS (10^-5M) Positive control group AL ([…]): (10^-6M)+LPS (10^-5M) Obeticholic acid administration (G3): AT-II (10^-6M)+LPS (10^-5M)+obeticholic acid (5×10^-6M) ARB administration (G4): AT-II (10^-6M)+LPS (10^-5M)+ARB (10^-6M) Obeticholic acid+ARB combined administration (G5): AT-II (10^-6M)+LPS (10^-5M)+obeticholic acid (5×10^-6M)+ARB (10^-6M) […] Evaluations were conducted in the five groups G1, G2AL, G3, G4, and G5.

Row | Structure (SMILES) | fibrosis index (FI) as fraction of the level in the positive control group [1] | progression of hepatic fibrosis (micrographs of Sirius Red-stained liver sections) [1] | increase in activated hepatic stellate cells (Ac-HSCs), micrographs of α-SMA stained sections [2] | α-SMA index (α-SI) compared to the positive control group [2] | TGF-β1 mRNA expression in liver compared to the positive control group (TGF-β1) | α1(I) procollagen mRNA expression in liver compared to the positive control group (α1(I) procollagen [3]) | α1(I)-procollagen mRNA expression induced by AT-II and LPS in HHSC (α1(I) procollagen [4])
1 | CCCCc1nc(Cl)c(CO)n1Cc1ccc(-c2ccccc2-c2nn[nH]n2)cc1 [losartan] | 7/10 | moderately inhibited | moderately inhibited | moderate but significant decreases | moderate decreasing tendency | moderate decreasing tendency | statistically significant inhibition
2 | CC[C@H]1[C@@H](O)[C@@H]2[C@H](CC[C@]3(C)[C@@H]([C@H](C)CCC(=O)O)CC[C@@H]23)[C@@]2(C)CC[C@@H](O)C[C@@H]12 [obeticholic acid, 3α,7α-dihydroxy-6α-ethyl-5β-cholan-24-oic acid] | approximately 6/10 | moderately inhibited | moderately inhibited | moderate but significant decreases | moderate decreasing tendency | moderate decreasing tendency | statistically significant inhibition
